Experimental data published in patent US9273017B2, “(Thio)morpholine derivatives as S1P modulators” (ABBVIE BAHAMAS LIMITED, priority 2009, dated 2016).

How the values were obtained:
human S1P5 receptor = target: T1, human S1P5 receptor (Homo sapiens, UniProt Q9H228); experiment: In vitro functional activity (agonism), CHO-human-S1P5-Aequorin assay; format: cell-based; conditions: read-out: S1P5 pEC50 (converted)
T1 construct: host or cells: CHO (AequoScreen recombinant cell line, co-expressing mitochondrially targeted apo-aequorin)
T1 sequence (Q9H228 whole entry): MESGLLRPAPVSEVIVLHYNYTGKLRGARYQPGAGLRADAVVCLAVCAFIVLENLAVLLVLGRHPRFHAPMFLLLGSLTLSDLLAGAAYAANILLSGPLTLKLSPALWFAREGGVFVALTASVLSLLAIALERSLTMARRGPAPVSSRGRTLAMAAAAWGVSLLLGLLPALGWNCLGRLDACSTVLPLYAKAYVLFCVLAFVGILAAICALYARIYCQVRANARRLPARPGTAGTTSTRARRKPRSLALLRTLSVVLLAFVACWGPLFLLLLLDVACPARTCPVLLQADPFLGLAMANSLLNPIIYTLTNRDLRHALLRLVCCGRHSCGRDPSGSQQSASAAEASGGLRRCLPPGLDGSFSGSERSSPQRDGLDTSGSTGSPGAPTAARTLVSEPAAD
Text: In Vitro Functional Activity (Agonism) on Human S1P5 Receptors
(§1) The CHO-human-S1P5-Aeqorin assay was bought from Euroscreen, Brussels (Euroscreen, Technical dossier, Human Lysophospholid S1P5 (Edg8) receptor, DNA clone and CHO AequoScreen™ recombinant cell-line, catalog no: ES-593-A, September 2006). Human-S1P5-Aequorin cells express mitochondrial targeted apo-Aequorin. Cells have to be loaded with coelanterazine, in order to reconstitute active Aequorin. After binding of agonists to the human S1P5 receptor the intracellular calcium concentration increases and binding of calcium to the apo-Aequorin/coelenterazine complex leads to an oxidation reaction of coelenterazine, which results in the production of apo-Aequorin, coelenteramide, CO2 and light (λmax 469 nm). This luminescent response is dependent on the agonist concentration. Luminescence is measured using the MicroBeta Jet (Perkin Elmer). Agonistic effects of compounds are expressed as pEC50. Compounds were tested at a 10 points half log concentration range, and 3 independent experiments were performed in single point's measurements.

human S1P3 receptor = target: T2, human S1P3 receptor (Homo sapiens, UniProt Q99500); experiment: In vitro functional activity (agonism), CHO-human-S1P3-Aequorin assay; format: cell-based; conditions: read-out: S1P3 pEC50 (converted)
T2 construct: cell line established at Solvay Pharmaceuticals; host or cells: CHO K1 (CHO/Gα16/AEQ/h-S1P3)
T2 sequence (Q99500 whole entry): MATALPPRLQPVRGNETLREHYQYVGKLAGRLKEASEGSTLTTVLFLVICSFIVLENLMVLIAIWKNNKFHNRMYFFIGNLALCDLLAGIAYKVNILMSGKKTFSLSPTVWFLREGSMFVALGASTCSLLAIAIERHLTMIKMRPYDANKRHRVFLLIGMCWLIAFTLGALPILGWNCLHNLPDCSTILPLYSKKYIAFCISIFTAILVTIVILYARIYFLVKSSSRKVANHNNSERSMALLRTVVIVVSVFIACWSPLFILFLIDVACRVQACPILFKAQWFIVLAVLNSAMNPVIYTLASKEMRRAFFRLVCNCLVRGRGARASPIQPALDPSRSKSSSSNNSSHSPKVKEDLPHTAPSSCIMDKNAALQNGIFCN
Text: In Vitro Functional Activity (Agonism) on Human S1P3 Receptors
The CHO-human-S1P3-Aeqorin assay (CHO/Gα16/AEQ/h-S1P3) was established at Solvay Pharmaceuticals. The plasmid DNA coding for the S1P3 receptor (accession number in GenBank NM_005226 was purchased from UMR cDNA resource Centre (Rolla, Mo.). The pcDNA3.1/hS1P3 construct carrying the mitochondrially targeted apo-Aeqorin and Gα16 protein was transfected in CHO K1 cell-line.
as §1, with “Human-S1P3-Aequorin” for “The CHO-human-S1P5-Aeqorin assay was bought from Euroscreen, Brussels (Euroscreen, Technical dossier, Human Lysophospholid S1P5 (Edg8) receptor, DNA clone and CHO AequoScreen™ recombinant cell-line, catalog no: ES-593-A, September 2006). Human-S1P5-Aequorin”, “S1P3” for “S1P5”

human S1P1 = target: T3, human S1P1 (Homo sapiens, UniProt P21453); experiment: In vitro functional activity (agonism), CHO-K1-human S1P1 cAMP assay; format: cell-based; conditions: read-out: S1P1 pEC50 (converted)
T3 construct: host or cells: CHO-K1
T3 sequence (P21453 whole entry): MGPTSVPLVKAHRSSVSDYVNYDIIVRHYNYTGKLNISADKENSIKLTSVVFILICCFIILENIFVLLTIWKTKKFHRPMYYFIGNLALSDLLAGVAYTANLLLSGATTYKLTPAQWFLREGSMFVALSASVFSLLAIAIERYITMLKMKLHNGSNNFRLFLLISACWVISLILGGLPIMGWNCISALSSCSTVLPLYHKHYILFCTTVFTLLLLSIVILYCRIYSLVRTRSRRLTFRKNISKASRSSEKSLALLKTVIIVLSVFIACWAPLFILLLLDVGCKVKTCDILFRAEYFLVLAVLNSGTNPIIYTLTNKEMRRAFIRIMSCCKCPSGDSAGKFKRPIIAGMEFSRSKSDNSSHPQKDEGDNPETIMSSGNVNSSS
Experimental: In Vitro Functional Activity (Agonism) on Human S1P1 Receptors
The CHO-K1-Human S1P1-c-AMP assay was performed at Euroscreenfast, Brussels (Euroscreen, Human S1P1 coupling Gi/o), (Edg1) receptor, catalog no: FAST-0197C, December 2009).
Recombinant CHO-K1 cells expressing human S1P1, grown to mid-log Phase in culture media without antibiotics, detached, centrifuged and re-suspended. For agonist testing cells are mixed with compound and Forskolin and incubated at room temperature. Cells are lyses and cAMP concentration are estimated, according to the manufacturer specification, With the HTRF kit from CIS-BIO International (cat no 62AM2PEB).
Agonistic effects of compounds are expressed as a percentage of the activity of the reference compound at its EC100 concentration, EC50) is calculated and results are reported as pEC50. Compounds were tested at a 10 points half log concentration range duplicated in 1 experiment.

C57BL/6J mice = experiment: In vivo therapeutic model; T-maze spontaneous alternation; conditions: 12-month old male C57BL6J mice; 10 mg/kg/day p.o. for 21 days and on test day at t=-30 min
Experimental: FIG. 1 Percentage of alternation of young and old C57BL/6J male mice in the T-maze with either vehicle (control groups) or compound 34b (10 mg/kg; p.o.)
In Vivo Therapeutic Model; T-Maze
Age-related memory deficits occur in humans and rodents. Spontaneous alternation is the innate tendency of rodents to alternate free choices in a T-maze over a series of successive runs. This sequential procedure relies on working memory and is sensitive to various pharmacological manipulations affecting memory processes (Aging and the physiology of spatial memory. Barnes C. A. Neurobiol. Aging 1988:563-8; Dember W N, Fowler H. Spontaneous alternation behavior. Psychol. Bull. 1958, 55(6):412-427; Gerlai R. A new continuous alternation task in T-maze detects hippocampal dysfunction in mice. A strain comparison and lesion study. Behav Brain Res 1998 95(1):91-101).
For this study, male C57BL/6J mice of 2 months or 12 months old were used in the spontaneous alternation task in the T-maze. In short, mice were subjected to 1 session containing 15 trials, consisting of 1 “forced-choice” trial, followed by 14 “free-choice” trials. The animal was considered as entering one of the arms of the maze when all four paws are placed within this arm. […] The percentage of alternation over the 14 free-choice trials was determined for each mouse and was used as an index of working memory performance. […]

Row | EC50 (human S1P5 receptor) [nM] | EC50 (human S1P3 receptor) [nM] | EC50 (human S1P1) [nM] | melting point [°C] | SMILES | reversal of the age-related cognitive decline (percentage of alternation in T-maze) (C57BL/6J mice) [%]
1 | 126 | > 10000 | > 3160 | 174.5 to 178 | Cl.O=C(O)CCN1CCOC(c2ccc(OCc3c(Cl)cccc3Cl)cc2F)C1 (stereo not shown) [Compound 179, 3-{2-[4-(2,6-Dichloro-benzyloxy)-2-fluoro-phenyl]-morpholin-4-yl}-propionic acid hydrochloride] | 
2 | 31.6 |  | > 3160 |  | Cl.O=C(O)CCN1CCOC(c2ccc(OCc3c(Cl)cccc3Cl)cc2)C1 (single isomer, unassigned; (-)) [Compound 34b, (−)-3-{2-[4-(2,6-Dichloro-benzyloxy)-phenyl]-morpholin-4-yl}-propionic acid hydrochloride] | 100
